Experimental data from patent publication US12257287B2, “Glucagon-derived peptide and use thereof” (Tianjin Institute of Pharmaceutical Research Co., Ltd., priority 2018, dated 2025).
Converted amounts (≈) assume the structure as drawn. Marks after values point to notes of the source that are not given here. Numbered stars: 1 amine (or outer) side, 2 acyl side, 3 side chain; on linkers, the order of the positions; unused ones are H or OH. Square brackets hold non-standard residues; d marks the D form. Side chains are listed from the residue outwards. Peptide text beside a SMILES is read from it. * marks the point of attachment. C20 diacid = O=C(O)CCCCCCCCCCCCCCCCCCC(=O)*; C18 diacid = O=C(O)CCCCCCCCCCCCCCCCC(=O)*; γGlu = O=C(O)[C@H](CCC(=O)[*:2])N[*:1]; AEEA = NCCOCCOCC(=O)O; Aib = CC(C)(N)C(=O)O

What was measured:
GC receptor = biological target: T1, GC receptor (Homo sapiens, UniProt P47871); experiment: GC receptor mediated cAMP production in vitro (HEK293 cells transfected with GC receptor); assay type: cell-based; conditions: 20 min at 37° C., read-out: GCGR (nM EC50)
T1 construct: expressed in transfected cells; host or cells: HEK293 cells
Excerpt: (§1) The medium was removed, the cells were lysed, and cAMP values were detected referring to the detection method described for the assay kit.

human GLP-1 receptor = biological target: T2, human GLP-1 receptor (Homo sapiens, UniProt P43220); experiment: GLP-1 receptor mediated cAMP production in vitro; assay type: cell-based; conditions: cells transfected with human GLP-1 receptor, 20 min at 37° C., read-out: GLP-1R (nM EC50)
T2 construct: expressed in transfected cells; host or cells: Chinese guinea pig lung cells [sic]
Excerpt: as §1

physchem = assay type: physicochemical
[1] = Glucose tolerance test in glucose-loaded DIO mice; assay type: in vivo; parameters: AUC reduction rate (%), Table 6: concentration or dose not given beside the values
Experimental: DIO mice fasted for 16 h, and 1 h after administration by subcutaneous injection, glucose solution (1 g/kg) was given intraperitoneally for glucose tolerance test. Blood glucose values were measured at 0.5, 1 and 1.5 h after glucose administration. The area under the blood glucose concentration curve (AUC) was calculated and compared with that of the model control group, and the blood glucose inhibition rate (%) was calculated.
(§2) Methods are the same as that in Example 3, the test results of effects on body weight are shown in Table 5, and the effects on blood glucose are shown in Table 6. In the table, 5 #-9 # are compound 27, compound 35, compound 54, compound 57, and compound 66, respectively.

[2] = Effect on body weight of DIO mice after 14 days' administration; assay type: in vivo, C57BL/6J mice
Excerpt: C57BL/6J mice (n=35), model group (n=30) were fed with H10060 high-fat diet to induce obesity (DIO), blank control group (n=5) were fed with standard diet, both for 34 weeks. One day before the first administration, the model group was randomly divided into groups according to their body weight (average body weight range 45.0-52.0 g), with 5 mice in each group, which respectively were model control group, positive control group (semaglutide), and test sample group (1 #-4 # are compound 1, compound 4, compound 6 and compound 22, respectively). The blank control group and model control group were given saline subcutaneously every day, while the positive control group and test sample group were administrated by subcutaneous injection every day for 14 days. The body weight of the animals was weighed and recorded every day, and the change rate of body weight (%) was calculated by comparing the body weight at the last administration day with the initial body weight. (initial body weight−last body weight)/initial body weight=body weight change rate (%). Calculation formula: […]
Calculated positive values indicate a decrease and negative values indicate an increase.
as §2

[3] = Short-term administration: food intake and body weight in DIO mice; assay type: in vivo; conditions: 30 nmol/kg once every 24 h, twice, − decrease; for Rate of change in food intake (%): at 48 hours vs day before administration; for Body weight change: at 48 hours
In short: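 DIO mice (mean body weight 52.5 g), 5 per group, dosed at 30 nmol/kg every 24 h for two doses, in 10 mM PBS pH 7.4; controls received solvent. Food intake and body weight at 48 h expressed as change rate versus the day before dosing.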

[4] = Accelerated chemical stability in injection solvent system (HPLC-UV); assay type: physicochemical; conditions: 14 days, phosphate buffer pH 7.3 with Tween 80 and phenol, main peak area vs day 0
Experimental: The chemical stability of the compounds of the present invention in injection solution systems was evaluated by an accelerated stability test. Methods: an appropriate amount of compound of Example 1 was weighed, and dissolved in 10 mM pH8.5 sodium hydrogen phosphate buffer. The final pH value of the solution was adjusted to 7.3 with 0.1 N hydrochloric acid, and proper amounts of Tween 80 and phenol were added. The mixture was placed at 10° C. and 37° C. for 14 days, and detected by HPLC-UV. The main peak area was obtained by peak area normalization method, and the changes compared with day 0 were investigated. The HPLC detection method was the same as that in Example 6, and the mobile phase gradient was appropriately adjusted according to the situation of chromatographic peak separation.

[5] = pH 7.5, Solubility, pH 7.5, 10 mM phosphate buffer
[6] = pH 7.5, Solubility, pH 7.5, 20 mM phosphate buffer
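Wherever Solubility is given: compound added at 2 mg per mL of phosphate buffer, with the dissolved amount determined in the supernatant.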

T2 sequence (P43220 24-463): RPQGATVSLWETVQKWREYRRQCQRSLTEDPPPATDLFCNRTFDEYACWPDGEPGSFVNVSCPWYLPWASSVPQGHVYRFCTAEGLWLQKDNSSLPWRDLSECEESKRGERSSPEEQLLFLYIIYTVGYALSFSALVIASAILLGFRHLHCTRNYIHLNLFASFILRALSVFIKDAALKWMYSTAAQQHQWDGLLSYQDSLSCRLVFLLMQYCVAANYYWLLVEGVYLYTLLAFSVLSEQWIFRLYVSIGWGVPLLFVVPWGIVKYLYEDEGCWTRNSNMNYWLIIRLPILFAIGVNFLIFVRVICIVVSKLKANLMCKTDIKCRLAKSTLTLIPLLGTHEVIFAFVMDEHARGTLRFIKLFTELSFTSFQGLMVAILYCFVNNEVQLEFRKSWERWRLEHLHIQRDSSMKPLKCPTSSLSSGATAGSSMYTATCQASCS
T1 sequence (P47871 26-477): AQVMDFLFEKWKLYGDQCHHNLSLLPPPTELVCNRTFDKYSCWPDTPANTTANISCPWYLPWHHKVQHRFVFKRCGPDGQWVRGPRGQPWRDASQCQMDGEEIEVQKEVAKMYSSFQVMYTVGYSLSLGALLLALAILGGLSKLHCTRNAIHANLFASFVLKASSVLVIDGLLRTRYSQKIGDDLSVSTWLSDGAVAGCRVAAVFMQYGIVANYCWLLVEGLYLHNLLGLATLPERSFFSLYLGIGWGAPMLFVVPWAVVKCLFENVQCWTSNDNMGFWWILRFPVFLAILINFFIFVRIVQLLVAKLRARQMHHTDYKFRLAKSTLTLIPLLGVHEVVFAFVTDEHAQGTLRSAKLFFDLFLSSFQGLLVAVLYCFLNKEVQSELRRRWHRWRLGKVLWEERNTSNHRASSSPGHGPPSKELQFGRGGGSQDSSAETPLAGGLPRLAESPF

EC50 (GC receptor)	EC50 (human GLP-1 receptor)	solubility (physchem; [5])	solubility (physchem; [6])	solubility (physchem; pH 8, Solubility, pH 8.0, 10 mM phosphate buffer)	solubility (physchem; pH 8, Solubility, pH 8.0, 20 mM phosphate buffer)	Change in purity % (10° C.) [4]	Change in purity % (37° C.) [4]	SMILES	AUC of blood glucose, Table 6 ([1]; Example 4, DIO mice under glucose load, methods as in Example 3)	AUC reduction rate (%), Table 6 ([1]; Example 4, compared with model control group, DIO mice under glucose load)	body weight change, Table 5 ([2]; Example 4, DIO mice, 14 days' administration, methods as in Example 3, positive values indicate a decrease)	Rate of change in food intake (%) [3]	Body weight change [3]	glucose tolerance / blood glucose lowering (in words) ([1]; DIO mice, conclusions on Tables 4 and 6)	body weight reduction (in words) ([2]; DIO mice, 14 days, conclusions on Tables 3 and 5)
0.052 nM	0.439 nM	1390 µg/mL (≈ 321 µM)	980 µg/mL (≈ 226 µM)	> 2000 µg/mL	1620 µg/mL (≈ 374 µM)	–	–	CC[C@H](C)[C@H](NC(=O)[C@H](Cc1ccccc1)NC(=O)[C@H](CCC(=O)O)NC(=O)[C@H](CCCCN)NC(=O)[C@H](C)NC(=O)[C@H](C)NC(=O)[C@H](CCCNC(=N)N)NC(=O)[C@H](CCC(=O)O)NC(=O)[C@H](CCC(=O)O)NC(=O)[C@H](CC(C)C)NC(=O)[C@H](Cc1ccc(O)cc1)NC(=O)[C@H](CCCCN)NC(=O)[C@H](CO)NC(=O)[C@H](CCCCNC(=O)COCCOCCNC(=O)COCCOCCNC(=O)CC[C@H](NC(=O)CCCCCCCCCCCCCCCCC(=O)O)C(=O)O)NC(=O)[C@H](CC(=O)O)NC(=O)[C@H](CO)NC(=O)[C@@H](NC(=O)[C@H](Cc1ccccc1)NC(=O)[C@@H](NC(=O)CNC(=O)[C@H](CCC(N)=O)NC(=O)C(C)(C)NC(=O)[C@@H](N)Cc1c[nH]cn1)[C@@H](C)O)[C@@H](C)O)C(=O)N[C@@H](C)C(=O)N[C@@H](Cc1c[nH]c2ccccc12)C(=O)N[C@@H](CC(C)C)C(=O)N[C@@H](CCC(=O)O)C(=O)NCC(=O)NCC(=O)N1CCC[C@H]1C(=O)N[C@@H](CO)C(=O)N[C@@H](CO)C(=O)NCC(N)=O [Compound 6] (H-H[Aib]QGTFTSDK([AEEA-AEEA-γGlu-C18 diacid])SKYLEERAAKEFIAWLEGGPSSG-NH2; N-terminus assumed)	8.99 ± 1.46 mmol·h/L	54.7** %	28.32	–	–	–	–
0.076 nM	0.291 nM	–	–	–	–	–	–	CC[C@H](C)[C@H](NC(=O)[C@H](Cc1ccccc1)NC(=O)[C@H](CCC(=O)O)NC(=O)[C@H](CCCCN)NC(=O)[C@H](C)NC(=O)[C@H](C)NC(=O)[C@H](CCCNC(=N)N)NC(=O)[C@H](CCC(=O)O)NC(=O)[C@H](CC(=O)O)NC(=O)[C@H](CC(C)C)NC(=O)[C@H](Cc1ccc(O)cc1)NC(=O)[C@H](CCCCN)NC(=O)[C@H](CO)NC(=O)[C@H](CCCCNC(=O)COCCOCCNC(=O)COCCOCCNC(=O)CC[C@H](NC(=O)CCCCCCCCCCCCCCCCCCC(=O)O)C(=O)O)NC(=O)[C@H](CC(=O)O)NC(=O)[C@H](CO)NC(=O)[C@@H](NC(=O)[C@H](Cc1ccccc1)NC(=O)[C@@H](NC(=O)CNC(=O)[C@H](CCC(N)=O)NC(=O)C(C)(C)NC(=O)[C@@H](N)Cc1c[nH]cn1)[C@@H](C)O)[C@@H](C)O)C(=O)N[C@@H](C)C(=O)N[C@@H](Cc1c[nH]c2ccccc12)C(=O)N[C@@H](CC(C)C)C(=O)N[C@@H](CCC(=O)O)C(=O)N[C@@H](C)C(=O)NCC(=O)NCC(=O)N1CCC[C@H]1C(=O)N[C@@H](CO)C(=O)N[C@@H](CO)C(=O)NCC(N)=O [Compound 77] (H-H[Aib]QGTFTSDK([AEEA-AEEA-γGlu-C20 diacid])SKYLDERAAKEFIAWLEAGGPSSG-NH2; N-terminus assumed)	–	–	–	−51%	-2.9 g	–	–
0.087 nM	0.141 nM	> 2000 µg/mL	> 2000 µg/mL	–	–	−1.9%	−4.5%	CC[C@H](C)[C@H](NC(=O)[C@H](Cc1ccccc1)NC(=O)[C@H](CCC(=O)O)NC(=O)[C@H](CCCCN)NC(=O)[C@H](C)NC(=O)[C@H](C)NC(=O)[C@H](CCCNC(=N)N)NC(=O)[C@H](CCC(=O)O)NC(=O)[C@H](CC(=O)O)NC(=O)[C@H](CC(C)C)NC(=O)[C@H](Cc1ccc(O)cc1)NC(=O)[C@H](CCCCN)NC(=O)[C@H](CO)NC(=O)[C@H](CCCCNC(=O)COCCOCCNC(=O)COCCOCCNC(=O)CC[C@H](NC(=O)CCCCCCCCCCCCCCCCC(=O)O)C(=O)O)NC(=O)[C@H](CC(=O)O)NC(=O)[C@H](CO)NC(=O)[C@@H](NC(=O)[C@H](Cc1ccccc1)NC(=O)[C@@H](NC(=O)CNC(=O)[C@H](CCC(N)=O)NC(=O)C(C)(C)NC(=O)[C@@H](N)Cc1c[nH]cn1)[C@@H](C)O)[C@@H](C)O)C(=O)N[C@@H](C)C(=O)N[C@@H](Cc1c[nH]c2ccccc12)C(=O)N[C@@H](CC(C)C)C(=O)N[C@@H](CCC(=O)O)C(=O)NCC(=O)NCC(=O)N1CCC[C@H]1C(=O)N[C@@H](CO)C(=O)N[C@@H](CO)C(=O)NCC(N)=O [Compound 75] (H-H[Aib]QGTFTSDK([AEEA-AEEA-γGlu-C18 diacid])SKYLDERAAKEFIAWLEGGPSSG-NH2; N-terminus assumed)	–	–	–	−60%	-2.4 g	–	–
0.014 nM	–	> 2000 µg/mL	> 2000 µg/mL	–	–	−1.8%	−4.6%	CC[C@H](C)[C@H](NC(=O)[C@H](Cc1ccccc1)NC(=O)[C@H](CCC(=O)O)NC(=O)[C@H](CCCCN)NC(=O)[C@H](C)NC(=O)[C@H](C)NC(=O)[C@H](CCCNC(=N)N)NC(=O)[C@H](CCC(=O)O)NC(=O)[C@H](CCC(=O)O)NC(=O)[C@H](CC(C)C)NC(=O)[C@H](Cc1ccc(O)cc1)NC(=O)[C@H](CCCCN)NC(=O)[C@H](CO)NC(=O)[C@H](CCCCNC(=O)COCCOCCNC(=O)COCCOCCNC(=O)CC[C@H](NC(=O)CCCCCCCCCCCCCCCCC(=O)O)C(=O)O)NC(=O)[C@H](CC(=O)O)NC(=O)[C@H](CO)NC(=O)[C@@H](NC(=O)[C@H](Cc1ccccc1)NC(=O)[C@@H](NC(=O)CNC(=O)[C@H](CCC(N)=O)NC(=O)C(C)(C)NC(=O)[C@@H](N)Cc1c[nH]cn1)[C@@H](C)O)[C@@H](C)O)C(=O)N[C@@H](C)C(=O)N[C@@H](Cc1c[nH]c2ccccc12)C(=O)N[C@@H](CC(C)C)C(=O)N[C@@H](CCC(=O)O)C(=O)N[C@@H](C)C(=O)NCC(=O)NCC(=O)N1CCC[C@H]1C(=O)N[C@@H](CO)C(=O)N[C@@H](CO)C(=O)NCC(N)=O [Compound 27] (H-H[Aib]QGTFTSDK([AEEA-AEEA-γGlu-C18 diacid])SKYLEERAAKEFIAWLEAGGPSSG-NH2; N-terminus assumed)	–	–	–	−55%	-1.9 g	significantly improved glucose tolerance	significantly reduced body weight
